According to patent US11591341B2 (ALIGOS THERAPEUTICS, INC., priority 2019, dated 2023):

System: HBV
Assay: HBV-DNA Antiviral Assay Using HepG2.117 Cells (intracellular HBV DNA by qPCR)
Type: cell-based, hepatitis B virus (genotype D)
Settings: Hepatitis B virus, HepG2.117
Outline: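 HepG2.117 cells (genotype D HBV, Tet-off) were induced by doxycycline withdrawal and treated for 3 days with 9 concentrations in 4-fold dilution, 2% DMSO final. Intracellular HBV DNA was measured by qPCR against a standard curve, with ATPlite viability read in parallel. EC50, EC90 and CC50 came from fits against the DMSO control.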

Row | Compound | EC50
1 | COc1ccc(-n2c(-c3ccccn3)c3n(c2=O)CCN(C(=O)c2ccc(Br)c(Cl)c2)C3)cc1 [Example 275, 7-(4-bromo-3-chloro-benzoyl)-2-(4-methoxyphenyl)-1-(2-pyridyl)-6,8-dihydro-5H-imidazo[1,5-a]pyrazin-3-one] | > 5000 nM
2 | COc1ccc(-n2c(C(=O)NCc3ccccc3)c3n(c2=O)C[C@H](C2CC2)N(C(=O)c2ccc(Br)c(Cl)c2)C3)cc1 (racemic) [Example 279, rac-(6S)-N-benzyl-7-(4-bromo-3-chloro-benzoyl)-6-cyclopropyl-2-(4-methoxyphenyl)-3-oxo-6,8-dihydro-5H-imidazo[1,5-a]pyrazine-1-carboxamide] | 100 to 500 nM
3 | NS(=O)(=O)c1ccc(-n2c(C(=O)NCc3ccccc3)c3n(c2=O)CCN(C(=O)c2ccc(Br)c(Cl)c2)C3)cc1 [Example 71, N-benzyl-7-(4-bromo-3-chloro-benzoyl)-3-oxo-2-(4-sulfamoylphenyl)-6,8-dihydro-5H-imidazo[1,5-a]pyrazine-1-carboxamide] | > 5000 nM
4 | C[C@@H](NC(=O)c1c2n(c(=O)n1-c1ccc(OCC(F)(F)F)cc1)CCN(C(=O)c1ccc(Br)c(Cl)c1)C2)c1ccc(OCC(N)=O)cc1F (stereo in doubt) [Example 319, 7-(4-bromo-3-chloro-benzoyl)-3-oxo-N-[rac-(1R)-1-[4-(2-amino-2-oxo-ethoxy)-2-fluoro-phenyl]ethyl]-2-[4-(2,2,2-trifluoroethoxy)phenyl]-6,8-dihydro-5H-imidazo[1,5-a]pyrazine-1-carboxamide] | 500 to 5000 nM
5 | O=C(NCc1ccccc1-c1ncccn1)c1c2n(c(=O)n1-c1ccc(-n3cccn3)cc1)CCN(C(=O)c1ccc(Br)c(Cl)c1)C2 [Example 429, 7-(4-bromo-3-chloro-benzoyl)-3-oxo-2-(4-pyrazol-1-ylphenyl)-N-[(2-pyrimidin-2-ylphenyl)methyl]-6,8-dihydro-5H-imidazo[1,5-a]pyrazine-1-carboxamide] | < 100 nM
6 | O=C(c1ccc(Br)c(Cl)c1)N1CCn2c(c3n(c2=O)C[C@H](O)CN(Cc2ccccc2)C3=O)C1 (stereo in doubt) [Example 174, rac-(11R)-13-benzyl-4-(4-bromo-3-chloro-benzoyl)-11-hydroxy-4,7,9,13-tetrazatricyclo[7.5.0.0^2,7]tetradec-1-ene-8.14-dione] | 500 to 5000 nM
7 | O=C(c1ccc(Br)c(Cl)c1)N1CCn2c(c3n(c2=O)CC2(COC2)CN(Cc2ccccc2)C3=O)C1 [Example 239, 13-benzyl-4-(4-bromo-3-chloro-benzoyl)spiro[4,7,9,13-tetrazatricyclo[7.5.0.0 2,7]tetradec-1-ene-11,3′-oxetane]-8,14-dione] | 500 to 5000 nM
8 | Cc1nc2cc(-n3c(C(=O)NCc4ccccc4)c4n(c3=O)CCN(C(=O)c3ccc(Br)c(Cl)c3)C4)ccc2o1 [Example 418, N-benzyl-7-(4-bromo-3-chloro-benzoyl)-2-(2-methyl-1,3-benzoxazol-5-yl)-3-oxo-6,8-dihydro-5H-imidazo[1,5-a]pyrazine-1-carboxamide] | 100 to 500 nM
9 | C[C@H](NC(=O)c1c2n(c(=O)n1-c1ccc(OCC(F)(F)F)cc1)CCN(C(=O)c1ccc(Br)c(Cl)c1)C2)c1ccc(OCC#N)cc1F (stereo in doubt) [Example 345, 7-(4-bromo-3-chloro-benzoyl)-3-oxo-N-[rac-(1S)-1-[4-(cyanomethoxy)-2-fluoro-phenyl]ethyl]-2-[4-(2,2,2-trifluoroethoxy)phenyl]-6,8-dihydro-5H-imidazo[1,5-a]pyrazine-1-carboxamide] | 100 to 500 nM
10 | O=C(NCc1ccccc1)c1c2n(c(=O)n1-c1ccc(N3CCC3=O)cc1)CCN(C(=O)c1ccc(Br)c(Cl)c1)C2 [Example 419, N-benzyl-7-(4-bromo-3-chloro-benzoyl)-3-oxo-2-[4-(2-oxoazetidin-1-yl)phenyl]-6,8-dihydro-5H-imidazo[1,5-a]pyrazine-1-carboxamide] | 500 to 5000 nM
11 | COc1cc(C#N)ccc1CNC(=O)c1c2n(c(=O)n1-c1ccc(OC(C)C)cc1)CCN(C(=O)c1ccc(Br)c(Cl)c1)C2 [Example 236, 7-(4-bromo-3-chloro-benzoyl)-N-[(4-cyano-2-methoxy-phenyl)methyl]-2-(4-isopropoxyphenyl)-3-oxo-6,8-dihydro-5H-imidazo[1,5-a]pyrazine-1-carboxamide] | 100 to 500 nM
12 | CC(C)Oc1ccc(-n2c(C(=O)NCc3ccccc3)c3n(c2=O)CCN(C(=O)c2ccc(Cl)c(Cl)c2)C3)cc1 [Example 52] | 500 to 5000 nM
13 | O=C(NCc1ccccc1)c1c2n(c(=O)n1-c1ccccn1)CCN(C(=O)c1ccc(Cl)c(Cl)c1)C2 [Example 78, N-benzyl-7-(3,4-dichlorobenzoyl)-3-oxo-2-(2-pyridyl)-6,8-dihydro-5H-imdiazo[1,5-a]pyrazine-1-carboxamide] | > 5000 nM
14 | C[C@@H]1CN(Cc2ccccc2)C(=O)c2c3n(c(=O)n2C1)CCN(C(=O)c1ccc(Br)c(Cl)c1)C3 (stereo in doubt) [Example 97, rac-(11R)-13-benzyl-4-(4-bromo-3-chloro-benzoyl)-11-methyl-4,7,9,13-tetrazatricyclo[7.5.0.0^2,7]tetradec-1-ene-8.14-dione] | 500 to 5000 nM
15 | COc1ccc(-n2c(C(=O)NCc3cccc(C(F)(F)F)c3)c3n(c2=O)CCN(C(=O)c2ccc(Br)c(Cl)c2)C3)cc1 [Example 152, 7-(4-bromo-3-chloro-benzoyl)-2-(4-methoxyphenyl)-3-oxo-N-[[3-(trifluoromethyl)phenyl]methyl]-6,8-dihydro-5H-imidazo[1,5-a]pyrazine-1-carboxamide] | 100 to 500 nM
16 | C[C@H](NC(=O)c1c2n(c(=O)n1-c1ccc(OC3CCC3)cc1)CCN(C(=O)c1ccc(Br)c(Cl)c1)C2)c1ccccc1 (stereo in doubt) [Example 136, 7-(4-bromo-3-chloro-benzoyl)-2-[4-(cyclobutoxy)phenyl]-3-oxo-N-[rac-(1S)-1-phenylethyl]-6,8-dihydro-5H-imidazo[1,5-a]pyrazine-1-carboxamide] | 100 to 500 nM
17 | COc1ccc(-n2c(C(=O)NC(C)c3ccc(F)cc3)c3n(c2=O)CCN(C(=O)c2ccc(Br)c(Cl)c2)C3)cc1 (stereo not drawn) [Example 141, 7-(4-bromo-3-chloro-benzoyl)-N-[1-(4-fluorophenyl)ethyl]-2-(4-methoxyphenyl)-3-oxo-6,8-dihydro-5H-imidazo[1,5-a]pyrazine-1-carboxamide] | 100 to 500 nM
18 | C[C@H](NC(=O)c1c2n(c(=O)n1-c1ccc(OCC(F)(F)F)cc1)CCN(C(=O)c1ccc(Br)c(Cl)c1)C2)c1ccc(C#N)cc1F (racemic) [Example 299, 7-(4-bromo-3-chloro-benzoyl)-3-oxo-N-[rac-(1R)-1-(4-cyano-2-fluoro-phenyl)ethyl]-2-[4-(2,2,2-trifluoroethoxy)phenyl]-6,8-dihydro-5H-imidazo[1,5-a]pyrazine-1-carboxamide] | 500 to 5000 nM
19 | Cc1cc2occc2cc1CNC(=O)c1c2n(c(=O)n1-c1ccc(OCC(F)(F)F)cc1)CCN(C(=O)c1ccc(Br)c(Cl)c1)C2 [Example 295, 7-(4-bromo-3-chloro-benzoyl)-N-[(6-methylbenzofuran-5-yl)methyl]-3-oxo-2-[4-(2,2,2-trifluoroethoxy)phenyl]-6,8-dihydro-5H-imidazo[1,5-a]pyrazine-1-carboxamide] | 100 to 500 nM
20 | COc1ccc(-n2c(C(=O)NCc3ccc(OC)cc3C3CC3)c3n(c2=O)CCN(C(=O)c2ccc(Br)c(Cl)c2)C3)cc1 [Example 210, 7-(4-bromo-3-chloro-benozyl)-N-[(2-cyclopropyl-4-methoxy-phenyl)methyl]-2-(4-methoxyphenyl)-3-oxo-6,8-dihydro-5H-imidazo[1,5-a]pyrazine-1-carboxamide] | 100 to 500 nM
21 | O=C(NCc1ccc(OC2COC2)cc1F)c1c2n(c(=O)n1-c1ccc(OC3CC3)cc1)CCN(C(=O)c1ccc(Br)c(Cl)c1)C2 [Example 363, 7-(4-bromo-3-chloro-benzoyl)-2-[4-(cyclopropoxy)phenyl]-N-[[2-fluoro-4-(oxetan-3-yloxy)phenyl]methyl]-3-oxo-6,8-dihydro-5H-imidazo[1,5-a]pyrazine-1-carboxamide] | 100 to 500 nM
22 | COc1ccc(-n2c(C(=O)NCc3ccccc3)c3n(c2=O)CCN(C(=O)c2ccc(Cl)c(Cl)c2)C3)cc1C [Example 124, N-benzyl-7-(3,4-dichlorobenzoyl)-2-(4-methoxy-3-methyl-phenyl)-3-oxo-6,8-dihydro-5H-imidazo[1,5-a]pyrazine-1-carboxamide] | 500 to 5000 nM
23 | C[C@H]1Cn2c(c(C(=O)NCc3ccccc3)n(-c3ccc(OC4CC4)cc3)c2=O)CN1C(=O)c1ccc(Br)c(Cl)c1 (racemic) [Example 302, rac-(6S)-N-benzyl-7-(4-bromo-3-chloro-benzoyl)-2-[4-(cyclopropoxy)phenyl]-6-methyl-3-oxo-6,8-dihydro-5H-imidazo[1,5-a]pyrazine-1-carboxamide] | 100 to 500 nM
24 | O=C(NCc1ccccc1)c1c2n(c(=O)n1-c1ccc(OC(F)(F)F)cc1)CCN(C(=O)c1ccc(Cl)c(Cl)c1)C2 [Example 131, N-benzyl-7-(3,4-dichlorobenzoyl)-3-oxo-2-[4-(trifluoromethoxy)phenyl]-6,8-dihydro-5H-imidazo[1,5-a]pyrazine-1-carboxamide] | > 5000 nM
25 | COc1ccc(-n2c(C(=O)NCc3ccccc3)c3n(c2=O)CCN(C(=O)c2cc4c(Cl)cccc4[nH]2)C3)cc1 [Example 56, N-benzyl-7-(4-chloro-1H-indole-2-carbonyl)-2-(4-methoxyphenyl)-3-oxo-6,8-dihydro-H-imidazo[1,5-a]pyrazine-1-carboxamide] | 100 to 500 nM
26 | O=C(NCc1ccccc1)c1c2n(c(=O)n1-c1cccc(Cl)c1)CCN(C(=O)c1ccc(Br)c(Cl)c1)C2 [Example 29, N-benzyl-7-(4-bromo-3-chloro-benzoyl)-2-(3-chlorophenyl)-3-oxo-6,8-dihydro-5H-imidazo[1,5-a]pyrazine-1-carboxamide] | 500 to 5000 nM
27 | O=C(NCc1ccccc1)c1c2n(c(=O)n1-c1ccc(OC(F)F)cc1)CCN(C(=O)c1ccc(Cl)c(Cl)c1)C2 [Example 121, N-benzyl-7-(3,4-dichlorobenzoyl)-2-[4-(difluoromethoxy)phenyl]-3-oxo-6,8-dihydro-5H-imidazo[1,5-a]pyrazine-1-carboxamide] | 500 to 5000 nM
